# Source: US9902728B2, “Pyrrolo and pyrazolopyrimidines as ubiquitin-specific protease 7 inhibitors” (Forma Therapeutics, Inc., priority 2014, dated 2018)
# Target: T1, USP7 (Homo sapiens, UniProt Q93009)
# T1 construct: USP7, construct USP7 (208-1102) 6*His, Viva Biotech; 6xHis (C); purchased Viva Biotech
# Experiment: USP7 Assay A (Ubitquin-Rhodamine 110 Assay)
# Format: biochemical
# Conditions: USP7 activity in USP7 assay A and B (table does not say which assay per compound); read-out: USP7_IC50
# In short: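 Enzyme and compound sat together for 30 min before Ub-Rh110 was added, in buffer of 20 mM Tris-HCl (pH 8.0), 1 mM GSH, 0.03% BGG and 0.01% Triton X-100.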
# T1 sequence (Q93009 208-1102): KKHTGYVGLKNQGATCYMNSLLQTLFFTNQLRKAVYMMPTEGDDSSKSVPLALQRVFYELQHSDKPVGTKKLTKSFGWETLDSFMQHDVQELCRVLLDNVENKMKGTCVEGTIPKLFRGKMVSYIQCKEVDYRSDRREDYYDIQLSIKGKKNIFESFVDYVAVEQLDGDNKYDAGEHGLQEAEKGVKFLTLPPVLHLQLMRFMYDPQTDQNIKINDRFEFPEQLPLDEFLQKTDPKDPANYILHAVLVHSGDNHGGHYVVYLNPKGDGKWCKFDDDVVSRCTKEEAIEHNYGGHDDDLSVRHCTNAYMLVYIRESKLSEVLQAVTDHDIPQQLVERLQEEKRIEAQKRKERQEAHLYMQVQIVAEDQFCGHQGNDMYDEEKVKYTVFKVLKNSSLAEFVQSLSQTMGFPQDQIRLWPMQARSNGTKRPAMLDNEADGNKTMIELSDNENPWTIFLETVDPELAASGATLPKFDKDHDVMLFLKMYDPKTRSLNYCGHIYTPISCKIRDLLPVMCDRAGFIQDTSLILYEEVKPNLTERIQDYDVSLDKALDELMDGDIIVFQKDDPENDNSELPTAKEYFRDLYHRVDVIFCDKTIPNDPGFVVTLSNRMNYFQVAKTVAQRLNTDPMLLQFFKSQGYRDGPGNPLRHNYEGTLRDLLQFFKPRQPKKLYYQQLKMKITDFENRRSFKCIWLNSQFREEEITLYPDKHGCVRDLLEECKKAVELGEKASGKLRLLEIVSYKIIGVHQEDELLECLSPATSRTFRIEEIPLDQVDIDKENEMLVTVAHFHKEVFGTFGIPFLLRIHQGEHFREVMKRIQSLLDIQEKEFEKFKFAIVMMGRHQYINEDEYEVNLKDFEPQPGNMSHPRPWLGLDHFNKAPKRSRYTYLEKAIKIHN
row,Structure (SMILES),IC50
1,CN1CCN(c2ccc(-n3ncc4c(=O)n(CC5(O)CCN(C(=O)C6(C)CC6)CC5)cnc43)cc2)CC1C(F)F (stereo not shown) [Compound I-1693],0.2 to 1 µM
2,CN1CCN(c2cccc(-n3ncc4c(=O)n(CC5(O)CCN(C(=O)C6(C)CC6)CC5)cnc43)c2)CC1C(F)F (stereo not shown) [Compound I-1694],< 0.2 µM
3,CC1(C(=O)N2CCC(O)(Cn3cnc4c(cnn4-c4cccc(N5CCN(C6COC6)CC5)c4)c3=O)CC2)CC1 [Compound I-1700],0.2 to 1 µM
4,CC1(C(=O)N2CCC(O)(Cn3cnc4c(cnn4-c4ccc(N5CCN(C6COC6)CC5)cc4)c3=O)CC2)CC1 [Compound I-1701],0.2 to 1 µM
5,CC(=O)N1C[C@@H]2C[C@H]1CN2c1cccc(-n2ncc3c(=O)n(CC4(O)CCN(C(=O)C5(C)CC5)CC4)cnc32)c1 [Compound I-1702],0.2 to 1 µM
6,Cc1ccn(-c2ccc(-n3ncc4c(=O)n(CC5(O)CCN(C(=O)C6(C)CC6)CC5)cnc43)cc2)n1 [Compound I-1710],0.2 to 1 µM
7,Cc1ccn(-c2ccc(-n3ncc4c(=O)n(CC5(O)CCN(C(=O)C6(C)COC6)CC5)cnc43)cc2)n1 [Compound I-1711],1 to 10 µM
8,CC1(C(=O)N2CCC(O)(Cn3cnc4c(cnn4-c4ccc(N5CCC6(CC5)COC6)cc4)c3=O)CC2)CC1 [Compound I-1716],< 0.2 µM
9,CC1(C(=O)N2CCC(O)(Cn3cnc4c(cnn4-c4ccc(-n5cc(C(F)(F)F)cn5)cc4)c3=O)CC2)CCC1 [Compound I-1717],< 0.2 µM
10,CC1(C(=O)N2CCC(O)(Cn3cnc4c(cnn4-c4ccc(N5CCC6(CC5)CC(F)(F)C6)cc4)c3=O)CC2)CCC1 [Compound I-1718],< 0.2 µM
11,CC1(C(=O)N2CCC(O)(Cn3cnc4c(cnn4-c4ccc(-c5cnn(C6CCOCC6)c5)cc4)c3=O)CC2)CCC1 [Compound I-1719],< 0.2 µM
12,CC1(C(=O)N2CCC(O)(Cn3cnc4c(cnn4-c4ccc(-c5cnn(C6CC6)c5)cc4)c3=O)CC2)CCC1 [Compound I-1720],< 0.2 µM
13,CC1(C(=O)N2CCC(O)(Cn3cnc4c(cnn4-c4ccc(-c5cnn(C(F)F)c5)cc4)c3=O)CC2)CCC1 [Compound I-1721],< 0.2 µM
14,CC1(C(=O)N2CCC(O)(Cn3cnc4c(cnn4-c4ccc(-c5cnn(C6CCOCC6)c5)cc4)c3=O)CC2)CC1 [Compound I-1722],< 0.2 µM
15,CC1(C(=O)N2CCC(O)(Cn3cnc4c(cnn4-c4ccc(-c5cnn(C6CC6)c5)cc4)c3=O)CC2)CC1 [Compound I-1723],0.2 to 1 µM
16,Cc1ccnc(-c2ccc(-n3ncc4c(=O)n(CC5(O)CCN(C(=O)C6CC6)CC5)cnc43)cc2)c1 [Compound I-1725],1 to 10 µM
17,Cc1ccc(-c2ccc(-n3ncc4c(=O)n(CC5(O)CCN(C(=O)C6CC6)CC5)cnc43)cc2)nc1 [Compound I-1726],0.2 to 1 µM
18,O=C(C1CC1)N1CCC(O)(Cn2cnc3c(cnn3-c3ccc(N4CCCc5ncccc54)cc3)c2=O)CC1 [Compound I-1727],1 to 10 µM
19,CC1(C(=O)N2CCC(O)(Cn3cnc4c(cnn4-c4ccc(N5CCC(F)(F)CC5)cc4)c3=O)CC2)CC1 [Compound I-1728],0.2 to 1 µM
20,O=C(c1ccc(F)cc1)N1CCC(O)(Cn2cnc3c(cnn3-c3ccc(N4CCCc5cnccc54)cc3)c2=O)CC1 [Compound I-1729],1 to 10 µM
21,CC1(C(=O)N2CCC(O)(Cn3cnc4c(cnn4-c4cccc(N5CC(C6CCOCC6)C5)c4)c3=O)CC2)CC1 [Compound I-1732],0.2 to 1 µM
22,Cc1ncc(C(=O)N2CCC(O)(Cn3cnc4c(cnn4-c4ccc(-n5cc(Cl)cn5)cc4)c3=O)CC2)o1 [Compound I-1733],< 0.2 µM
23,O=C(c1ccc(F)cc1)N1CCC(O)(Cn2cnc3c(cnn3-c3ccc(-n4cc(CO)cn4)cc3)c2=O)CC1 [Compound I-1734],0.2 to 1 µM

row,Structure (SMILES),IC50
1,O=C(c1ccc(N2CCN3CCCC3C2)cc1)N1CCC(O)(Cn2cnc3c(cnn3-c3ccc(F)cc3)c2=O)CC1 (stereo not shown) [Compound I-1735],1 to 10 µM
2,O=C(C1CC1)N1CCC(O)(Cn2cnc3c(cnn3-c3ccc(-c4cnn5ccccc45)cc3)c2=O)CC1 [Compound I-1736],0.2 to 1 µM
3,O=C(C1CC1)N1CCC(O)(Cn2cnc3c(cnn3-c3ccc(-c4cncc(C(F)(F)F)c4)cc3)c2=O)CC1 [Compound I-1737],1 to 10 µM
4,O=C(C1CC1)N1CCC(O)(Cn2cnc3c(cnn3-c3ccc(-c4cccc5oncc45)cc3)c2=O)CC1 [Compound I-1738],1 to 10 µM
5,O=C(C1CC1)N1CCC(O)(Cn2cnc3c(cnn3-c3ccc(N4CCC5(CC4)CC(O)C5)cc3)c2=O)CC1 [Compound I-1739],1 to 10 µM
6,O=C(c1ccc(F)cc1)N1CCC(O)(Cn2cnc3c(cnn3-c3ccc(N4CCC5(CC4)CC(CO)C5)cc3)c2=O)CC1 [Compound I-1740],0.2 to 1 µM
7,O=C(C1CC1)N1CCC(O)(Cn2cnc3c(cnn3-c3ccc(N4CCC5(CC4)CC(CO)C5)cc3)c2=O)CC1 [Compound I-1741],0.2 to 1 µM
8,O=C(c1ccc(F)cc1)N1CCC(O)(Cn2cnc3c(cnn3-c3ccc(-c4cnn(C5CCS(=O)(=O)CC5)c4)cc3)c2=O)CC1 [Compound I-1744],0.2 to 1 µM
9,O=C(c1ccc(F)cc1)N1CCC(O)(Cn2cnc3c(cnn3-c3ccc(-c4cnn(C5CS(=O)(=O)C5)c4)cc3)c2=O)CC1 [Compound I-1745],0.2 to 1 µM
10,O=C(c1ccc(F)cc1)N1CCC(O)(Cn2cnc3c(cnn3-c3ccc(-c4cnn(C5CC5)c4)cc3)c2=O)CC1 [Compound I-1746],0.2 to 1 µM
11,CC(=O)N1C[C@@H]2C[C@H]1CN2c1ccc(-n2ncc3c(=O)n(CC4(O)CCN(C(=O)C5(C)CC5)CC4)cnc32)cc1 [Compound I-1747],0.2 to 1 µM
12,CC(=O)N1CC2CC1CN2c1cccc(-n2ncc3c(=O)n(CC4(O)CCN(C(=O)C5(C)CC5)CC4)cnc32)c1 (stereo not shown) [Compound I-1748],0.2 to 1 µM
13,CC(=O)N1CC2CC1CN2c1ccc(-n2ncc3c(=O)n(CC4(O)CCN(C(=O)C5(C)CC5)CC4)cnc32)cc1 (stereo not shown) [Compound I-1749],0.2 to 1 µM
14,COCCN1CCN(c2cccc(-n3ncc4c(=O)n(CC5(O)CCN(C(=O)C6(C)CC6)CC5)cnc43)c2)CC1 [Compound I-1750],0.2 to 1 µM
15,CC1(C(=O)N2CCC(O)(Cn3cnc4c(cnn4-c4cccc(N5CCC(C#N)CC5)c4)c3=O)CC2)CC1 [Compound I-1751],0.2 to 1 µM
16,CC1(C(=O)N2CCC(O)(Cn3cnc4c(cnn4-c4ccc(N5CCC(C#N)CC5)cc4)c3=O)CC2)CC1 [Compound I-1752],0.2 to 1 µM
17,Cn1ncc2c(=O)n(CC3(O)CCN(C(=O)CC(C(F)F)n4ccc(F)n4)CC3)cnc21 (stereo not shown) [Compound I-1753],0.2 to 1 µM
18,CC1(C(=O)N2CCC(O)(Cn3cnc4c(cnn4-c4ccc(-n5ccc(F)n5)cc4)c3=O)CC2)CC1 [Compound I-1754],0.2 to 1 µM
19,O=C(C1CC1)N1CCC(O)(Cn2cnc3c(cnn3-c3ccc(N4CCC5(CC4)CC5)cc3)c2=O)CC1 [Compound I-1755],1 to 10 µM
20,CC1(COc2ccc(-n3ncc4c(=O)n(CC5(O)CCN(C(=O)c6ccc(F)cc6)CC5)cnc43)cc2)COC1 [Compound I-1756],0.2 to 1 µM
21,Cn1ncc2ccc(-c3ccc(-n4ncc5c(=O)n(CC6(O)CCN(C(=O)C7CC7)CC6)cnc54)cc3)cc21 [Compound I-1764],1 to 10 µM
22,O=C(C1CC1)N1CCC(O)(Cn2cnc3c(cnn3-c3ccc(-c4ccc5[nH]ccc5n4)cc3)c2=O)CC1 [Compound I-1768],0.2 to 1 µM

# Same assay, conditions: USP7 assay A and B (table does not say which assay per compound); read-out: USP7_IC50
row,Structure (SMILES),IC50
1,O=C(Nc1cccnc1)N1CCC(O)(Cn2cnc3c(cnn3-c3ccc(F)cc3)c2=O)CC1 [Compound I-1708],1 to 10 µM
2,CC1(C(=O)N2CCC(O)(Cn3cnc4c(cnn4-c4ccc(-c5cnn(C(F)F)c5)cc4)c3=O)CC2)CC1 [Compound I-1800],< 0.2 µM
3,CC1(C(=O)N2CCC(O)(Cn3cnc4c(cnn4-c4ccc(OC5CC(F)(F)C5)cc4)c3=O)CC2)CC1 [Compound I-1801],< 0.2 µM
4,O=C(C1CC1)N1CCC(O)(Cn2cnc3c(cnn3-c3cccc(-c4cnc(N5CCOCC5)nc4)c3)c2=O)CC1 [Compounds I-401],1 to 10 µM
